Experimental findings from PMC3947011 (ACS chemical biology, 2013) are described below.

Like-named read-outs stand apart in the source and are kept apart here.

What all share (assay type): cell-based
The test system of assay [1] is Vancomycin-resistant E. faecalis (ATCC 700802).
The test system of assay [2] is Methicillin-resistant S. aureus (ATCC 33591).
Assay [3] relates to P. aeruginosa (ATCC 27853).
For assay [4], the system named is Methicillin-resistant S. epidermidis (RP62A).
The test system of a further assay is E. coli (ATCC 25922).
Assay [5] concerns K. pneumoniae (ATCC 13383).

Consider Pexiganan, for which the figures for the “MIC E. faecalis” value in assay [1] (24 h) and in assay [1] (value in parentheses) were 32 µg/mL and 12 µM, respectively. Moreover, the “MIC S. aureus” value worked out at 16 µg/mL in assay [2] (24 h) and 6 µM in assay [2] (value in parentheses). The “MIC P. aeruginosa” value in assay [3] (24 h) is 16 µg/mL; in assay [3] (value in parentheses), 6 µM. Further, the “MIC S. epidermidis” value in assay [4] (24 h) was 8 µg/mL; in assay [4] (value in parentheses), 3 µM. Moreover, the “MIC E. coli” value against E. coli (ATCC 25922) (complete growth inhibition after 24 h, highest tested 25 μg/mL) was 8 µg/mL; with E. coli (ATCC 25922) (value in parentheses) it was 3 µM. Also, the “MIC K. pneumoniae” value in assay [5] (24 h) amounted to 8 µg/mL; in assay [5] (value in parentheses), 3 µM.
